One series addresses Recombinant human BACE-1 (Homo sapiens (Human), UniProt P56817). Briefly: Measurement of BACE1 inhibitory activity. The series is classed as biochemical. Particulars: Recombinant human BACE-1 7.4 nM, substrate peptide 18 nM, pH 5.0, 3 hours at 30° C.; read-out: IC50 (BACE1 enzyme activity). The method, then:
First, 48.5 μl portions of a solution of substrate peptide (Biotin-XSEVNLDAEFRHDSGC-Eu: X=ε-amino-n-capronic acid, Eu=Europium cryptate) were put into respective wells of a 96-well half area microplate (black microplate, Costar). Then, 0.5 μl of a test compound (DMSO (dimethyl sulfoxide) solution) and 1 μl of Recombinant human BACE-1 (R&D systems) were added to each of the wells, and they were reacted for 3 hours at 30° C. […] The final concentration of the substrate peptide was set to 18 nM, and the final concentration of Recombinant human BACE-1 was set to 7.4 nM. The reaction buffer used was a sodium acetate buffer (50 mM sodium acetate, pH 5.0, 0.008% Triton X-100). After the reaction finished, 50 μl portions of a 8.0 μg/ml solution of Streptavidin-XL665 (CIS bio international) in a phosphate buffer (150 mM K2HPO4—KH2PO4, pH 7.0, 0.008% Triton X-100, 0.8 M KF) were added to the respective wells, and the plate was left standing for 1 hour at 30° C. Thereafter, the fluorescence intensity (excitation wavelength: 320 nm, measurement wavelength: 620 nm and 665 nm) was measured with a Wallac 1420 multilabel counter (Perkin Elmer life sciences). The enzyme activity was determined from the count rate at each measurement wavelength (10000× Count 665/Count 620), and the amount needed to inhibit the enzyme activity by 50% (IC50) was calculated.

The test system of series [1] is Neuroblastoma SH-SY5Y cells (SH/APPwt) with human wild-type β-APP excessively expressed. Briefly: Measurement of β-amyloid (Aβ) production inhibitory effect in cell. The format is cell-based. Particulars: 24 hours incubation, Amyloid-β 1-40 HTRF. The method, then: Neuroblastoma SH-SY5Y cells (SH/APPwt) with human wild-type β-APP excessively expressed therein were prepared at 8×10^5 cells/mL, and 150 μl portions thereof were inoculated into respective wells of a 96-well culture plate (Falcon). The cells were cultured for 2 hours at 37° C. in a 5% gaseous carbon dioxide incubator. […] Namely, the final DMSO concentration was 1%, and the amount of the cell culture was 200 μl. After the incubation was performed for 24 hours from the addition of the test compound, 100 μl of the culture supernatant was collected from each fraction. The amount of the Aβ in each fraction was measured. The Aβ amount was measured as follows. 10 μl of a homogeneous time resolved fluorescence (HTRF) measurement reagent (Amyloid-β 1-40 peptide; IBA Molecular Holding, S.A.) and 10 μl of the culture supernatant were put into a 384-well half area microplate (black microplate, Costar) and mixed with each other, and then left standing overnight at 4° C. while the light was shielded. Then, the fluorescence intensity (excitation wavelength: 337 nm, measurement wavelength: 620 nm and 665 nm) was measured with a Wallac 1420 multilabel counter (Perkin Elmer life sciences).

A short description of a further series: Metabolic stability test. The format is in vitro ADME. Particulars: human liver microsomes 0.5 mg protein/mL, NADPH, 30 minutes at 37° C., compound concentration 2 μM. The method, then:
The target compound was reacted with commercially available pooled human liver microsomes for a predetermined time period. The residual rate was calculated by comparing the reacted sample and unreacted sample, and thus the degree of metabolism in liver was evaluated.
In 0.2 mL of a buffer (50 mmol/L tris-HCl pH 7.4, 150 mmol/L potassium chloride, 10 mmol/L magnesium chloride) containing human liver microsomes 0.5 mg protein/mL, reaction was carried out in the presence of 1 mmol/L NADPH for 0 minute or 30 minutes at 37° C. (oxidative reaction). After the reaction, 50 μL of the reaction solution was added to and mixed with 100 μL of a solution of methanol/acetonitrile=1/1 (v/v), and the mixture was centrifuged for 15 minutes at 3000 rpm. The test compound in the centrifuged supernatant was quantified by LC/MS/MS, and the residual amount of the test compound after the reaction was calculated based on the compound amount at 0-minute reaction set as 100%.
(Results) The residual rate at a compound concentration of 2 μM is shown below.

For series [2], the target named is T1, CYP3A4 (Homo sapiens (Human), UniProt P08684). Description: CYP3A4 fluorescent MBI test. Particulars: E. coli-expressing CYP3A4, 7-BFC substrate, pre-reaction 0 or 30 minutes. The series is classed as in vitro ADME. The procedure:
The CYP3A4 fluorescent MBI test is a test to examine enhancement of CYP3A4 inhibition by metabolic reaction of the compound. Here, E. coli-expressing CYP3A4 was used as an enzyme, and a reaction wherein 7-benzyloxy trifluoromethylcumarin (7-BFC) was debenzylated by the CYP3A4 enzyme into a fluorescent metabolite 7-hydroxytrifluoromethylcumarin (HFC) was employed as an indicator reaction. The reaction conditions were as follows.
Substrate: 5.6 μmol/L 7-BFC
Pre-reaction time: 0 or 30 minutes
Reaction time: 15 minutes
Reaction temperature: 25° C. (room temperature)
CYP3A4 content (E. coli-expressing enzyme): 62.5 pmol/mL at pre-reaction, […] at reaction (10-fold diluted) […]
The enzyme and a test compound solution were added to a K-Pi buffer (pH 7.4) in the aforementioned amounts for the pre-reaction so that a pre-reaction solution was prepared, and this solution was put into a 96-well microplate. […] With respect to each of the microplates on which the indicator reaction was performed, the fluorescence value of the metabolite 7-HFC was measured with a fluorescence plate reader (Ex=420 nm, Em=535 nm). […] The remaining activity (%) at each concentration after adding the test compound solution was calculated, and the IC50 value was calculated from the concentration and inhibition percentage by inverse estimation with the logistic model. […]

Another series has as its target CYP2C9 (Homo sapiens (Human), UniProt P11712). Description: CYP inhibition test (CYP2C9). The series is classed as in vitro ADME. Particulars: pooled human liver microsomes, methyl-hydroxylation of tolbutamide. The text has this: (§1) Using commercially available pooled human liver microsomes and employing typical substrate metabolic reactions of 5 major species of human CYP enzymes (CYP1A2, 2C9, 2C19, 2D6, 3A4), namely, O-deethylation of 7-ethoxyresorufin (CYP1A2), methyl-hydroxylation of tolbutamide (CYP2C9), 4′-hydroxylation of mephenyloin (CYP2C19), O-demethylation of dextromethorphan (CYP2D6), and hydroxylation of terfenadine (CYP3A4), as indicator reactions, the degree of inhibition of each metabolite production by each test compound was evaluated.
(§2) The reaction conditions were as follows:
(§3) Substrate: 0.5 μmol/L of ethoxyresorufin (CYP1A2), 100 μmol/L of tolbutamide (CYP2C9), 50 μmol/L of S-mephenyloin (CYP2C19), 5 μmol/L of dextromethorphan (CYP2D6), 1 μmol/L of terfenadine (CYP3A4); […]
(§4) As a reaction solution, the respective five substrates, human liver microsomes, and test compound in the aforementioned amounts were added to a 50 mM Hepes buffer in a 96-well microplate. […] Centrifugation was performed for 15 minutes at 3000 rpm, and each metabolite in the centrifuged supernatant was quantified. Namely, resorufin (CYP1A2 metabolite) was quantified with a fluorescence multilabel counter, and hydroxylated tolbutamide (CYP2C9 metabolite), 4′-hydroxylated mephenyloin (CYP2C19 metabolite), dextrorphan (CYP2D6 metabolite) and alcoholized terfenadine (CYP3A4 metabolite) were quantified with LC/MS/MS. […]
In general terms: Liver microsomes are a subcellular fraction often used to study metabolism.

The target of a further series is CYP2C19 (Homo sapiens (Human), UniProt P33261). Description: CYP inhibition test (CYP2C19). The format is in vitro ADME. Particulars: pooled human liver microsomes, 4′-hydroxylation of mephenyloin.
Chain of CYP2C19 (P33261 whole entry): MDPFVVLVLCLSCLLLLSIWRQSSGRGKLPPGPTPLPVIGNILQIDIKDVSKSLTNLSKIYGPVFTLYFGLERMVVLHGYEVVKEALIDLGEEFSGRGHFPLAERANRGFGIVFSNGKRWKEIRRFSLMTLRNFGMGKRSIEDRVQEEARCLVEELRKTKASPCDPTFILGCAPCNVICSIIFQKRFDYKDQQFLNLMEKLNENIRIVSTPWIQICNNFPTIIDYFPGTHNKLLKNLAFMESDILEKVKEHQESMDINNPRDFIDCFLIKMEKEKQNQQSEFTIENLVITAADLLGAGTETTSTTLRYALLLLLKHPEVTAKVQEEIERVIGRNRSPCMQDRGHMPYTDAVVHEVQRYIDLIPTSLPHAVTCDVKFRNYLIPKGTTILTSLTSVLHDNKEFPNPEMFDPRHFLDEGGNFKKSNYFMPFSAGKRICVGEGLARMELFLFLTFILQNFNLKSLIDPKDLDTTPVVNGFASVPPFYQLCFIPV
Description: as §1, §2, §3, §4

The target of the next series is CYP2D6 (Homo sapiens (Human), UniProt P10635). Description: CYP inhibition test (CYP2D6). The series is classed as in vitro ADME. Particulars: pooled human liver microsomes, O-demethylation of dextromethorphan.
Chain of CYP2D6 (P10635 whole entry): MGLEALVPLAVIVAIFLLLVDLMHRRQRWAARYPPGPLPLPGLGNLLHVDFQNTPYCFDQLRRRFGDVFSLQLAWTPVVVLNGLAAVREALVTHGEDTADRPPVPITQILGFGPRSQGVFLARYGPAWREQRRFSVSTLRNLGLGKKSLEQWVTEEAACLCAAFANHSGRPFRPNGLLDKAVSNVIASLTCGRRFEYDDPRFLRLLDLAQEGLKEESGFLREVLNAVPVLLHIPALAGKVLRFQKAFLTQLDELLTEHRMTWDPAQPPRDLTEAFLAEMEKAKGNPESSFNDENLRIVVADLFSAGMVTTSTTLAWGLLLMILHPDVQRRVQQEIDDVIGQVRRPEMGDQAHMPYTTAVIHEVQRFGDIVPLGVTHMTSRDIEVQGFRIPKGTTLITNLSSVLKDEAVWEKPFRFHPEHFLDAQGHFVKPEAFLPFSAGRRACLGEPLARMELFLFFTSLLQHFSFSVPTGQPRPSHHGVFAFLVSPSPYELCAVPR
Description: as §1, §2, §3, §4

Series [3] has as its target T1, CYP3A4. Description: CYP inhibition test (CYP3A4). Particulars: pooled human liver microsomes, hydroxylation of terfenadine. The format is in vitro ADME.
Description: as §1, §2, §3, §4

A further series has as its target CYP1A2 (Homo sapiens (Human), UniProt P05177). Description: CYP inhibition test (CYP1A2). The series is classed as in vitro ADME.
Description: as §1, §2, §3, §4

A further series can be described thus: Solubility test. The format is physicochemical. Particulars: artificial intestinal juice (phosphate buffer) with 1% DMSO, fassgf or other biorelevant, kinetic from dmso stock, artificial intestinal juice pH 6.8, 16 hours at 25° C. The procedure:
The solubility of each compound was determined under 1% DMSO addition conditions. A 10 mM solution of the compound was prepared with DMSO, and 6 μL of the compound solution was added to 594 μL of an artificial intestinal juice (water and 118 mL of 0.2 mol/L NaOH reagent were added to 250 mL of 0.2 mol/L potassium dihydrogen phosphate reagent to reach 1000 mL) with a pH of 6.8. The mixture was left standing for 16 hours at 25° C., and the mixture was vacuum-filtered. The filtrate was two-fold diluted with methanol/water=1/1, and the compound concentration in the filtrate was measured with HPLC or LC/MS/MS by the absolute calibration method.

One may read the IC50 as the concentration that gives 50% inhibition. For orientation: solubility means the dissolved amount per volume that the medium holds. The low end stands for a poorly soluble substance, the high end for a readily soluble substance.

Where two headings read alike, the source gives them in different places. Bounds are passed on as bounds.

T1 sequence (P08684 whole entry): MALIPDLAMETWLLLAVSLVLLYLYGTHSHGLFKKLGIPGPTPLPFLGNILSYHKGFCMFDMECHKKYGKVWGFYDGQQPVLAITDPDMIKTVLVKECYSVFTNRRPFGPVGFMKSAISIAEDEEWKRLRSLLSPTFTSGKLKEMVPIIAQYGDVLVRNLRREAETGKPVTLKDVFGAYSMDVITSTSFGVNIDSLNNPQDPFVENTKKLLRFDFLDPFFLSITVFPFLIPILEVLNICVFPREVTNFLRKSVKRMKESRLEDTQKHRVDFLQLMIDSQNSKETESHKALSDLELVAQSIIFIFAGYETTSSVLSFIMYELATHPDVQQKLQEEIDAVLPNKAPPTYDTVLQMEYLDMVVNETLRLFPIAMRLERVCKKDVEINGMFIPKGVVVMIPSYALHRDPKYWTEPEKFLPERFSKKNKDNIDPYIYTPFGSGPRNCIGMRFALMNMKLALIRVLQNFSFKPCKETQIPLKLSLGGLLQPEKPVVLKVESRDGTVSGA
Chain of Recombinant human BACE-1 (P56817 46-501): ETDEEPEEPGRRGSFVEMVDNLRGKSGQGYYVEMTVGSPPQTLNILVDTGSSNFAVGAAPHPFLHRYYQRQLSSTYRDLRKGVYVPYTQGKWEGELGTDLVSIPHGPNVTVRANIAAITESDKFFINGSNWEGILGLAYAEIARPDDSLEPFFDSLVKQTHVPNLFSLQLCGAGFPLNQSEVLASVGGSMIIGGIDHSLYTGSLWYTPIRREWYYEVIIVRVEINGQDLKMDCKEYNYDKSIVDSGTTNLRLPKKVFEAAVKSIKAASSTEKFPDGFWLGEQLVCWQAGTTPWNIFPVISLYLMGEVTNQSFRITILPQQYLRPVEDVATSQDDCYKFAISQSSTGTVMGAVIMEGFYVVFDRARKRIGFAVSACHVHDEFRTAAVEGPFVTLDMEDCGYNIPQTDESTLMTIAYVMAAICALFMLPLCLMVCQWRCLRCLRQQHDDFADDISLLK
Chain of CYP1A2 (P05177 whole entry): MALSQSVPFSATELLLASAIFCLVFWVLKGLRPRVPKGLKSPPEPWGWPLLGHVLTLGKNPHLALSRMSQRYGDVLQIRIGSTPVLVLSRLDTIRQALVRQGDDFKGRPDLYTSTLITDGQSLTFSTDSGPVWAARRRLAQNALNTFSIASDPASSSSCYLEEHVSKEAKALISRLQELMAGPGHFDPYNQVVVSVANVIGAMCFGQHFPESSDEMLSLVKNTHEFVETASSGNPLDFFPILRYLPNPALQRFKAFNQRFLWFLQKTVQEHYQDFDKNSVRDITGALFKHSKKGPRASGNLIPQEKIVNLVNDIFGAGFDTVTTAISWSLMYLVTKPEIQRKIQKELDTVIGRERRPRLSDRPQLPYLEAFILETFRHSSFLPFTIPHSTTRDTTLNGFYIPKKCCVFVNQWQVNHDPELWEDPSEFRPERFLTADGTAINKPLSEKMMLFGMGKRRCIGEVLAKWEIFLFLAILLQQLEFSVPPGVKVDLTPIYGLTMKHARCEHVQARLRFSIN
Chain of CYP2C9 (P11712 whole entry): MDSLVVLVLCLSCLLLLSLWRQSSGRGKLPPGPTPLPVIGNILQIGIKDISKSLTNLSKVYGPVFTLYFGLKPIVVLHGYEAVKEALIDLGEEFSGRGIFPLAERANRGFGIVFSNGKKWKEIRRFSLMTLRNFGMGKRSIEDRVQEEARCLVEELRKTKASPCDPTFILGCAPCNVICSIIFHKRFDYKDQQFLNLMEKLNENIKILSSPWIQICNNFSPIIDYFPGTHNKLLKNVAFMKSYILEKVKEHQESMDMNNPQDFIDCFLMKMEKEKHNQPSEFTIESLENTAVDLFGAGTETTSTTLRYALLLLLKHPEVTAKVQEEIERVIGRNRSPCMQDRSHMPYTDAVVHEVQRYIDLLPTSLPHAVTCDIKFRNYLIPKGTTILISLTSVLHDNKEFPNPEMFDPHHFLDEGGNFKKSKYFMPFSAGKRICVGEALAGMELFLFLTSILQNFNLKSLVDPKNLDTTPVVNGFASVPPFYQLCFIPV

As to `CN1C(=O)CC(C)(c2cccc(NC(=O)c3cnc(Cl)cn3)c2)N=C1N` (stereo not shown) [Compound 34], the IC50 amounted to 37 nM at Recombinant human BACE-1 and 76.2 nM in series [1].
In the series “Metabolic stability test”, `COc1cnc(C(=O)Nc2cccc(C3(C)CC(=O)N(C)C(N)=N3)c2)cn1` (stereo not shown) [Compound 35] came in with a residual rate of 99.5%. In addition, the half-inhibitory concentration (IC50) on Recombinant human BACE-1 turned out to be 42 nM; in [1], 6.6 nM.
For `C#CCOc1cnc(C(=O)Nc2cccc(C3(C)CC(=O)N(C)C(N)=N3)c2)cn1` (stereo not shown) [Compound 43], the values for the IC50 (on Recombinant human BACE-1; in series [1]) were 56 nM and 28.6 nM, respectively. For the same compound, the IC50 difference without vs with pre-reaction at CYP3A4 [2] is at most 3000 nM.
In the case of `CC#CCOc1cnc(C(=O)Nc2cccc(C3(C)CC(=O)N(C)C(N)=N3)c2)cn1` (stereo not shown) [Compound 44], the 50% inhibitory concentration (IC50) on CYP2C9 was above 20000 nM; against CYP2C19, above 20000 nM; at Recombinant human BACE-1, 12 nM; in series [1] it was 0.7 nM; against CYP2D6, above 20000 nM; against CYP3A4 [3], above 20000 nM. In addition, at CYP1A2, the IC50 is above 20000 nM.
Consider `COc1cnc(C(=O)Nc2cccc(CNc3cccnc3N)c2)cn1` [Compound 473], for which the IC50 was above 20000 nM against CYP2C9; above 20000 nM at CYP2C19; 1980 nM on Recombinant human BACE-1; 479 nM in series [1]; above 20000 nM on CYP2D6; above 20000 nM against CYP3A4 [3]. Further, the IC50 at CYP1A2 (pooled human liver microsomes, O-deethylation of 7-ethoxyresorufin, read-out: IC50 CYP1A2 inhibition) was above 20000 nM. This compound yielded a solubility at 16 h in the series “Solubility test” above 50 µM.
With `COCCOc1cnc(C(=O)Nc2cccc(CNc3cccnc3N)c2)cn1` [Compound 478], the solubility at 16 h in “Solubility test” was above 50 µM. In addition, the IC50 at Recombinant human BACE-1 was 3180 nM; in [1] it was 811 nM.
Consider `C#CCOc1cnc(C(=O)Nc2cccc(CNc3cccnc3N)c2)cn1` [Compound 481], for which the IC50 on Recombinant human BACE-1 was 180 nM; in [1], 76.8 nM.
In the same order, the values of `CC#CCOc1cnc(C(=O)Nc2cccc(CNc3cccnc3N)c2)cn1` [Compound 482] are 73 nM and 43.8 nM.
Regarding `C[C@@H](NC(=O)c1cc(C(=O)N[C@@H](Cc2ccccc2)[C@H](O)CNC2CC2)cc(N(C)S(C)(=O)=O)c1)c1ccccc1` [Reference Compound, reference compound], the half-inhibitory concentration (IC50) in series [1] turned out to be 36.8 nM.

Source of the values: patent publication US8703785B2, “2-aminopyrimidin-4-one and 2-aminopyridine derivatives both having BACE1-inhibiting activity” (Shionogi & Co., Ltd., priority 2008, dated 2014).
